From ChEMBL document CHEMBL1201862, “PubChem BioAssay data set” (2004)
Activity calls are given as the source filed them.

Assays:
[1] = target: T1, Rac GTPase-activating protein 1 (Homo sapiens, UniProt Q9H0H5); assay: blockers of MgcRacGAP-driven Rac1 GTP hydrolysis – biochemical, ADP Hunter fluorescence, primary and confirmatory, confirmation (AID 624330); type: functional
T1 sequence (Q9H0H5 whole entry): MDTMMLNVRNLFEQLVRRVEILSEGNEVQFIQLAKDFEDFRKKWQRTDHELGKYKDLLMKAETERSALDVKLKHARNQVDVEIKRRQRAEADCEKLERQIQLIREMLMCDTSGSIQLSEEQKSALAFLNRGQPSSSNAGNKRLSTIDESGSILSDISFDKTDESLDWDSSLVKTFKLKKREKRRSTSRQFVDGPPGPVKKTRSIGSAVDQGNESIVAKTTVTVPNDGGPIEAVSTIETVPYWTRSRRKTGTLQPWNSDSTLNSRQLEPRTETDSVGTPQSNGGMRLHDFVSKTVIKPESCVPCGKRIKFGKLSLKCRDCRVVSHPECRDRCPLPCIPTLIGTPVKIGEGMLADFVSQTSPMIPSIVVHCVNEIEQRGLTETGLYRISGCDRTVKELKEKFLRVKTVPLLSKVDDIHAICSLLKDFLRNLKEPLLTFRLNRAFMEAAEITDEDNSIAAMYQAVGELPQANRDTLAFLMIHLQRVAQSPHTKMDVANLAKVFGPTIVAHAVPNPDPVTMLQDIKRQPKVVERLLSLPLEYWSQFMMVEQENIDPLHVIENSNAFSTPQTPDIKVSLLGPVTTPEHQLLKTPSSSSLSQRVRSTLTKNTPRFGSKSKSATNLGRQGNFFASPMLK

NADPH oxidase 1 [2] = target: T2, NADPH oxidase 1 (Homo sapiens, UniProt Q9Y5S8); type: functional, cell-based
T2 sequence (Q9Y5S8 whole entry): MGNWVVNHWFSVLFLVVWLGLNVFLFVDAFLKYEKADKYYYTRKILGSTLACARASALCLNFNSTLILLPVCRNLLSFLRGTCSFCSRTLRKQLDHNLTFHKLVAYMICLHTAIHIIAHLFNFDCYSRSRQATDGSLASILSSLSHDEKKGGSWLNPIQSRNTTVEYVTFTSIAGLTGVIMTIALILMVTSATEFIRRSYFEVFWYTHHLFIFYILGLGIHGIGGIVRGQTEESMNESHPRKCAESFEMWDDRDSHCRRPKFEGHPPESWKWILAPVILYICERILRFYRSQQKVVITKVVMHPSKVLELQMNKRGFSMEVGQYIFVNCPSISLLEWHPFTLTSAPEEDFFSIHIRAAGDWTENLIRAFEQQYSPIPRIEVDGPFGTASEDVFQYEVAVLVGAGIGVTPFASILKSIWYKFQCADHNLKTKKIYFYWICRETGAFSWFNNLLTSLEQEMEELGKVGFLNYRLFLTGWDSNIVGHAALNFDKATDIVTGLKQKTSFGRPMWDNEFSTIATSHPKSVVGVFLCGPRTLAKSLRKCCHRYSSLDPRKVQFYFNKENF

NADPH oxidase 1 [3] = target: T2, NADPH oxidase 1; assay: Luminescence-based cell-based dose response assay to identify inhibitors of NADPH oxidase 1 (NOX1).; type: functional
[4] = decrease of insulin promoter-GFP reporter – imaging, high-content screening, mouse beta cells (AID 1628); type: functional; details: MIN6
[5] = MIN6 cell viability loss – mouse insulinoma, cytotoxicity control, dose response (AID 2122); type: functional;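 note: confirmatory high-throughput counterscreen run to flag cytotoxic compounds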
Genome polyprotein = Genome polyprotein (Hepatitis C virus, UniProt Q2Q167); assay: disruption of hepatitis C core self-association – biochemical, TR-FRET, dose response (AID 2159); set-up: species or system Hepacivirus hominis;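 note: blocks dimerization of HCV core protein measured by TR-FRET between tagged core106 pairs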
Chain of Genome polyprotein (Q2Q167 whole entry): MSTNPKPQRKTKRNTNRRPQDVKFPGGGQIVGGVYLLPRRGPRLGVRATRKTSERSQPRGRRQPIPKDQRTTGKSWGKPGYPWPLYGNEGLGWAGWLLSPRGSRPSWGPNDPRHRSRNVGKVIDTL

[6] = target: Induced myeloid leukemia cell differentiation protein Mcl-1 (Homo sapiens, UniProt Q07820); assay: blockers of MCL1 binding to BIM peptide – biochemical, fluorescence polarization, BIM-BH3 peptide, 1536-well, dose response (AID 2217)
Chain of Induced myeloid leukemia cell differentiation protein Mcl-1 (Q07820 whole entry): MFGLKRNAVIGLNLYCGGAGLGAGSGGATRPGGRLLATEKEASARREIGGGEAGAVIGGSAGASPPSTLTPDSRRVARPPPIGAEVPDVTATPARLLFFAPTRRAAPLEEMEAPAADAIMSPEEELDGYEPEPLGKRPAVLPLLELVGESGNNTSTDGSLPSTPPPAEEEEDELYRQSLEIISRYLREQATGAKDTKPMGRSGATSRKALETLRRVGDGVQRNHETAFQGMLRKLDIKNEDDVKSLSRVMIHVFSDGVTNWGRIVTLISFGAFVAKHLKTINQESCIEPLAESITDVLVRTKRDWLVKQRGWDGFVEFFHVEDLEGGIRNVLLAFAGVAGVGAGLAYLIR

Bcl-2-like protein 1 = Bcl-2-like protein 1 (Homo sapiens, UniProt Q07817); assay: blockers of BCLXL peptide binding – biochemical, fluorescence polarization, 1536-well, selectivity assay for MCL1 inhibitor project, dose response (AID 2218)
Chain of Bcl-2-like protein 1 (Q07817 whole entry): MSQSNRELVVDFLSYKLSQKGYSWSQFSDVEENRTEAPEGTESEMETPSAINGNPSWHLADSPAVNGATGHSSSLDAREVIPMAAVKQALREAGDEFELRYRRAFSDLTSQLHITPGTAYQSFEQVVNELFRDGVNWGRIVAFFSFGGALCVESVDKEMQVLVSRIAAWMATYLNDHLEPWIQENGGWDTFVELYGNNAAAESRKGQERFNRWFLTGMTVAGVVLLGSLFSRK

Procathepsin L = Procathepsin L (Homo sapiens, UniProt P07711); assay: CTSL1 protease inhibition – biochemical, QFRET, 1536-well, counter-screen for M1/M17 aminopeptidase inhibitor project, dose response (AID 2214)
Chain of Procathepsin L (P07711 whole entry): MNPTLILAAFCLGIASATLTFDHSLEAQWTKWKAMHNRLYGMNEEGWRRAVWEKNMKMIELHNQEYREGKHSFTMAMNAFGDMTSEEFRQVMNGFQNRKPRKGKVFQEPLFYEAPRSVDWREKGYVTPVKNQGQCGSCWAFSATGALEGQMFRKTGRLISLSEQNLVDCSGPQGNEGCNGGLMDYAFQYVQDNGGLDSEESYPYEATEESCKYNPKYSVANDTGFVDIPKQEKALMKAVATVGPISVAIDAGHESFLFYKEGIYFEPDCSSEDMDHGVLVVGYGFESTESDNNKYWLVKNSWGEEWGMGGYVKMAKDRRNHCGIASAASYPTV

[7] = target: T3, Zinc finger protein mex-5 (Caenorhabditis elegans, UniProt Q9XUB2); assay: potency of MEX-5 RNA-binding blockers – biochemical, C. elegans, fluorescence polarization, dose response (AID 1960)
T3 sequence (Q9XUB2 whole entry): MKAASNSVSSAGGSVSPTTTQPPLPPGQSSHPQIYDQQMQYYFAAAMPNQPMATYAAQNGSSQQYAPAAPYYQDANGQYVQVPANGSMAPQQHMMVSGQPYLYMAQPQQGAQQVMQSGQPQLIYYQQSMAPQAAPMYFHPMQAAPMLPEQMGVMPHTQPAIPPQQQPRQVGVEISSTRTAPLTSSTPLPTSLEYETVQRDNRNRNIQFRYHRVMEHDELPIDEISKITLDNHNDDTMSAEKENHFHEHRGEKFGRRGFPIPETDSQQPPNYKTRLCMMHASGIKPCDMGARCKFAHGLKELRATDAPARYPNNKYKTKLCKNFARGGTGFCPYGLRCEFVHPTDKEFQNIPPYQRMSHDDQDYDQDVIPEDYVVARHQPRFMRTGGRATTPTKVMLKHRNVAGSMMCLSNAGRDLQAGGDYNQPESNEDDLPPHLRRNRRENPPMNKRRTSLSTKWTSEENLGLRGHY

[8] = target: T4, RNA-binding protein pos-1 (Caenorhabditis elegans, UniProt G5EF15); assay: disruptors of C. elegans POS-1 RNA interaction – biochemical, fluorescence polarization, dose response (AID 1964);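 note: purified POS-1 fused to maltose binding protein made in E. coli; potency of compounds blocking POS-1 binding to fluorescent RNA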
T4 sequence (G5EF15 whole entry): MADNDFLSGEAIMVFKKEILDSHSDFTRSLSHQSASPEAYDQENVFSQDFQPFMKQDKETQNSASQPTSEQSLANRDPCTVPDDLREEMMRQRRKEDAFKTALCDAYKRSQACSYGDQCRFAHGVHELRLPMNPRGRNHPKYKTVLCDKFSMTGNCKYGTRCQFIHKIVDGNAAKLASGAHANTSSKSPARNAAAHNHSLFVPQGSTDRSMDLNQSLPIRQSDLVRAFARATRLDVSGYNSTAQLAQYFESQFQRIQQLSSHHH

Aminopeptidase N = target: T5, Aminopeptidase N (Plasmodium falciparum FcB1/Columbia, UniProt O96935); assay: malaria alanyl aminopeptidase activity blockers – biochemical, fluorogenic H-Leu-NHMec substrate, 1536-well (AID 1445); set-up: species or system Plasmodium falciparum 3D7, 3D7
T5 sequence (O96935 whole entry): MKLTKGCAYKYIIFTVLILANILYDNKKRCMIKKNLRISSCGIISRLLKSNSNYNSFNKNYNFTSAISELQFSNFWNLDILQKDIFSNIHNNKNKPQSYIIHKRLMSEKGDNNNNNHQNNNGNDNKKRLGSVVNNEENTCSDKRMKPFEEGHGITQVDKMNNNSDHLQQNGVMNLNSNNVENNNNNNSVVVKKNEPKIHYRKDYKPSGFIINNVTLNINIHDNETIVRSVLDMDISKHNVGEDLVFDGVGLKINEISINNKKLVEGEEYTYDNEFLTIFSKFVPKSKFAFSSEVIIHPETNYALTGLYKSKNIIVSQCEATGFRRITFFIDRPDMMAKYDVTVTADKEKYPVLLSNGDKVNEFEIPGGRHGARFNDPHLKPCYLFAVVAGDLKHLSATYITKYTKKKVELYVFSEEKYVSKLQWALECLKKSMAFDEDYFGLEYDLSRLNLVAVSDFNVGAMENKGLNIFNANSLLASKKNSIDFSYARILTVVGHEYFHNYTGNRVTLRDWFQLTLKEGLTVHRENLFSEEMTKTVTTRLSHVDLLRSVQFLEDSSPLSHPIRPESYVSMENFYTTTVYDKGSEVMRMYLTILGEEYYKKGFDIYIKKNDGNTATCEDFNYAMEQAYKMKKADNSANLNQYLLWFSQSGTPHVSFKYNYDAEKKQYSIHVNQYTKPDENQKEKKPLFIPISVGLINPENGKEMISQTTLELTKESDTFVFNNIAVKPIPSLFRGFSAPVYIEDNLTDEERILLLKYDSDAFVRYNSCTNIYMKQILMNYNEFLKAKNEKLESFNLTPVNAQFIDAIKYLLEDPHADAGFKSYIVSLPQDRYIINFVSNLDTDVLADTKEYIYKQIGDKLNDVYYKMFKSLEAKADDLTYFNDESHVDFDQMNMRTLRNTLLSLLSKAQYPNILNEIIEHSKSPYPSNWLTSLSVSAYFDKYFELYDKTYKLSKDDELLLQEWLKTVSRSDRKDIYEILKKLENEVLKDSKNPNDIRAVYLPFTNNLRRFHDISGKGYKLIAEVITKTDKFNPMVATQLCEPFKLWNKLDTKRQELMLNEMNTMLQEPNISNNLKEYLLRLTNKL

Aspartyl aminopeptidase = Aspartyl aminopeptidase (Plasmodium falciparum 3D7, UniProt Q8I2J3); assay: Counterscreen for inhibitors of M1 and M17 aminopeptidases: QFRET-based biochemical high throughput dose response assay for inhibitors of the Plasmodium falciparum M18 Aspartyl Aminopeptidase (PFM18AAP). [Related PubChem assays: 1619 (Screening assay (M17LAP inhibitors).), 1445 (Screening assay (M1AAP inhibitors).)]
Chain of Aspartyl aminopeptidase (Q8I2J3 whole entry): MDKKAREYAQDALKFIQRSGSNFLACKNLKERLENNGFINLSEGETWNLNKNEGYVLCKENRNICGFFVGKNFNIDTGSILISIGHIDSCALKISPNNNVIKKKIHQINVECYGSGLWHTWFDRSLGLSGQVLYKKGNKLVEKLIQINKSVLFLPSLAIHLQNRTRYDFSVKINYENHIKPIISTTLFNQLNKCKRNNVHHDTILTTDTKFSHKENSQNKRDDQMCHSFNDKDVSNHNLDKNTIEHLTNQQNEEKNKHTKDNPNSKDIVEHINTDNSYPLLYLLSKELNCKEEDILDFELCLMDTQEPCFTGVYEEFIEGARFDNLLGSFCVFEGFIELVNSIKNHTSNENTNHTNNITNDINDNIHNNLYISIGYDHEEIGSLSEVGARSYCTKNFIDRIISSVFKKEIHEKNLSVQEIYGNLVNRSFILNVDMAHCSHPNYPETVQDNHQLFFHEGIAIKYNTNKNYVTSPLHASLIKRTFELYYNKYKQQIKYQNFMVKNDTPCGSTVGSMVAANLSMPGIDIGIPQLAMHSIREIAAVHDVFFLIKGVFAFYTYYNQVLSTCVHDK

[9] = NIH-3T3 fibroblast cytotoxicity, dose response, cytotoxicity control, cell-based, fluorescence, Alamar Blue, secondary assay (AID 2327); type: functional;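 note: NIH-3T3 mouse fibroblasts cultured with fluconazole at 8 µg/mL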
cells [10] = type: functional, cell-based
Vero = assay: mammalian cell viability reduction – secondary assay, cytotoxicity control for West Nile virus antiviral project, dose response (AID 1650); type: functional; details: Chlorocebus sabaeus
INS1 = assay: INS-1E survival protection against cytokine death – cell-based, luminescence, retest, dose response (AID 449756); type: functional; details: Rattus norvegicus;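 note: cell death triggered by IL-1 beta plus TNF-alpha plus IFN-gamma mixture; protective hits raise ATP signal compared with cytokine alone wells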
[11] = THP-1 cell cytotoxicity, dose response, cytotoxicity control for non-replicating M. tuberculosis project (AID 489025); type: functional
cells [12] = type: functional
[13] = Vero E6 cell cytotoxicity, dose response, cytotoxicity control for non-replicating M. tuberculosis project, secondary assay (AID 492998); type: functional, VeroE6; details: Vero C1008
cells [14] = type: functional, cell-based; remark: listed apart in the source
[15] = fluconazole-exposed Candida albicans growth modulators – fluorescence, retest, confirmation (AID 2467); type: functional, cell-based
[16] = HepG2 cell cytotoxicity, dose response, cytotoxicity control for non-replicating M. tuberculosis project (AID 489018); type: functional; details: Mycobacterium tuberculosis
[17] = target: T6, COUP transcription factor 2 (Homo sapiens, UniProt P24468); assay: Luminescence-based cell-based high throughput dose response assay to identify inhibitors of COUP-TFII (NR2F2).; type: functional;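 note: HEK293 cells transiently cotransfected with COUP-TFII expression vector and reporter; luciferase reporter luminescence driven by COUP-TFII from the pX2-168 reporter plasmid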
T6 sequence (P24468 whole entry): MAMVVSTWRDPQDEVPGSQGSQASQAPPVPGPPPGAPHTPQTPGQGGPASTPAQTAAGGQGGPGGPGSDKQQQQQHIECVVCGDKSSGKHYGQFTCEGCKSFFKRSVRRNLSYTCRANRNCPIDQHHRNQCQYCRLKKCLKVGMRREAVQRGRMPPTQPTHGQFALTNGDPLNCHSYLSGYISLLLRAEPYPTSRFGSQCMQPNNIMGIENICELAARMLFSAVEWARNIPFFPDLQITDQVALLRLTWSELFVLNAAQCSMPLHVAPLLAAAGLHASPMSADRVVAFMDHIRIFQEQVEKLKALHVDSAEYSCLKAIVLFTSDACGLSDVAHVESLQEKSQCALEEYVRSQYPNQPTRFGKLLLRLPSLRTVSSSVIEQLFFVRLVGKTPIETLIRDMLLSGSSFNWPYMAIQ

[18] = non-specific 3'UTR reporter inhibition in Clone20-Shn3RL – cell-based, Renilla luciferase, cherry-picked, counter-screen for Shn3 inhibitor project, dose response (AID 624133); type: functional
[19] = loss of viability in HepG2 cells – cell-based, CellTiter-Glo, cherry-picked, cytotoxicity control for Shn3 inhibitor project, dose response (AID 624134); type: functional
Galanin receptor type 2 = Galanin receptor type 2 (Homo sapiens, UniProt O43603); assay: Dose Response cell-based high-throughput screening assay to identify antagonists of galanin receptor 2 (GALR2). [Related pubchem assays: 828, 866 ]; type: functional
Chain of Galanin receptor type 2 (O43603 whole entry): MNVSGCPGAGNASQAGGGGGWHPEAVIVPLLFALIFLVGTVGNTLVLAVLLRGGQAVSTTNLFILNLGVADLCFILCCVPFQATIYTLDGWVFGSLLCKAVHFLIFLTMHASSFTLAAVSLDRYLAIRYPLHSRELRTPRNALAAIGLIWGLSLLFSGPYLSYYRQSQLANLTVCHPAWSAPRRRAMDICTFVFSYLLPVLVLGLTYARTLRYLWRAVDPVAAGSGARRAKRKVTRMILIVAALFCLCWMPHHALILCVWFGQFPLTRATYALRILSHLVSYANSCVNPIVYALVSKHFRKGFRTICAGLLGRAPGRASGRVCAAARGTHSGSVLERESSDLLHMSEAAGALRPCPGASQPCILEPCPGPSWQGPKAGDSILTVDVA

[20] = reduction of Shn3 3'UTR-driven luciferase in osteoblasts – cell-based, Clone20 osteoblasts, firefly luciferase, cherry-picked, dose response (AID 624132); type: functional;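 note: firefly luciferase luminescence from reporter carrying the Shn3 3'UTR in osteoblasts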
[21] = target: Sphingosine 1-phosphate receptor 2 (Homo sapiens, UniProt O95136); assay: Dose Response Cell Based Assay for Agonists of the S1P2 Receptor of Purchased Analogues. [Related pubchem assays: 729, 843, 854, 736 ]; type: functional
Chain of Sphingosine 1-phosphate receptor 2 (O95136 whole entry): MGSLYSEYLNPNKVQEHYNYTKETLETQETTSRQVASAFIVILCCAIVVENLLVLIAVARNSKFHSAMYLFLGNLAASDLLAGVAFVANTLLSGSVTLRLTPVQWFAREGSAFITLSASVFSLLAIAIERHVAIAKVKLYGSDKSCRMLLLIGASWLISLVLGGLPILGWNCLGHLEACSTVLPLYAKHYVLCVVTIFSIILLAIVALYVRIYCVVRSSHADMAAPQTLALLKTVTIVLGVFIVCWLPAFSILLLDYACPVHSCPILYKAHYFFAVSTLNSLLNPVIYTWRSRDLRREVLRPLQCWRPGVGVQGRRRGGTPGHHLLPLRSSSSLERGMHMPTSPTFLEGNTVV

Structure (SMILES): COc1ccc2c(c1)Sc1ccccc1N2
- IC50 [1]: 28.8 µM (active)
- IC50 (NADPH oxidase 1 [2]): 0.935 µM (active)
- IC50 (NADPH oxidase 1 [3]): > 20 µM (not active)
- IC50 [4]: 2.01 µM (active)
- IC50 [5]: 1.63 µM (active)

Structure (SMILES): COc1ccc(NC(=O)CN(C)C(=O)c2cc3c(s2)CCC3)cc1
- IC50 (Genome polyprotein): 42.6 µM (not active)
- IC50 [6]: 7.31 µM (active)
- IC50 (Bcl-2-like protein 1): > 109 µM (not active)

Structure (SMILES): O=C(NCc1cccs1)C1CCN(S(=O)(=O)c2ccc(Br)s2)CC1
- IC50 (Procathepsin L): > 59.6 µM (not active)
- EC50 [7]: > 300 µM (not active)
- EC50 [8]: > 300 µM (not active)
- IC50 (Aminopeptidase N): 4.67 µM (active)
- IC50 (Aspartyl aminopeptidase): > 73.5 µM (not active)

Structure (SMILES): O=C(N/N=C(\c1ccccc1)c1ccccn1)c1cccc([N+](=O)[O-])c1
- EC50 [9]: 155 µM (inconclusive)
- EC50 (cells [10]): 4.64 µM (active)
- CC50 (Vero): 1.73 µM (active)
- AC50 (INS1): 0.535 µM (active)
- CC50 [11]: 0.394 µM (active)
- IC50 (cells [12]): 1.06 µM (active)
- CC50 [13]: 1.61 µM (active)
- EC50 (cells [14]): > 350 µM (not active)
- EC50 [15]: 3.75 µM (active)
- CC50 [16]: 6.88 µM (active)

Structure (SMILES): CC(=O)c1c(C)[nH]c(C(=O)OCC(=O)Nc2ccc(Cl)cc2[N+](=O)[O-])c1C
- IC50 [17]: 6.5 µM (active)
- AC50 (INS1): 1.98 µM (active)
- AC50 [18]: 13.6 µM (active)
- AC50 [19]: 53.2 µM (active)
- IC50 (Galanin receptor type 2): > 42 µM (not active)
- AC50 [20]: 0.325 µM (active)

Structure (SMILES): COc1ccc(NC(=O)CN(C)CC(=O)c2cc(C)n(Cc3ccccc3)c2C)cc1
- EC50 [21]: > 30 µM (not active)
